The source of these data is ChEMBL document CHEMBL4616613, “Phosphine boranes as less hydrophobic building blocks than alkanes and silanes: Structure-property relationship and estrogen-receptor-modulating potency of 4-phosphinophenol derivatives” (Bioorg Med Chem, 2020).

By IC50 is commonly meant the concentration that gives 50% inhibition. What is called EC50 is the concentration that produces a half-maximal response. Low readings indicate higher potency in that assay, high ones lower potency in that assay. By pKa is commonly meant the pH at which an ionisable group is half protonated. A higher pKa goes with a group that holds its proton tightly. In general, logP refers to a log measure of how a compound divides between an organic and an aqueous phase. A higher logP goes with higher lipophilicity. The inhibition is the share of the control response that was lost under treatment.

Data set [1] addresses T1, Estrogen receptor (Homo sapiens, UniProt P03372).
T1 sequence (P03372 whole entry): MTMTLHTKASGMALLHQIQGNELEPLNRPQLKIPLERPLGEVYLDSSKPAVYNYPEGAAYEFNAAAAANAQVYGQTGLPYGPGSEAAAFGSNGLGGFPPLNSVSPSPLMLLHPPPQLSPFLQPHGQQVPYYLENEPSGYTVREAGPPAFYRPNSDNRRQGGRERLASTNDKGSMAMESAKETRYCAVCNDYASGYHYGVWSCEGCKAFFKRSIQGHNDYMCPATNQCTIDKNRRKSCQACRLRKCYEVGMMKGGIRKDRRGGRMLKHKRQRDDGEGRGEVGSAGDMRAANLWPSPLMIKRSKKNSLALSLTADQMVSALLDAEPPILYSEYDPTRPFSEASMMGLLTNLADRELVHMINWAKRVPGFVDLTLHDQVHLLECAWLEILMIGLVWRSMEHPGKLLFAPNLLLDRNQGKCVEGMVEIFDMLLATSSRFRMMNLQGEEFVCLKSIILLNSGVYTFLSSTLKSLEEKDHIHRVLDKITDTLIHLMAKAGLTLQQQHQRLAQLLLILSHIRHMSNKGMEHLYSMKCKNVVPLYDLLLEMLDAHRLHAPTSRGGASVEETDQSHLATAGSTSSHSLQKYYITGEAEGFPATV
Particulars: hek293; call rule not given here.

In data set [2] the target is T1, Estrogen receptor. Particulars: hek293. This is another data set of the same source.
Description: (§1) Agonist activity at human Gal4-fused ERalpha expressed in HEK293 cells assessed as transcriptional activation after 24 hrs by luciferase/beta-galactosidase reporter gene assay
Data set [3] has as its target T2, Estrogen receptor beta (Homo sapiens, UniProt Q92731). Particulars: hek293.
Description: (§2) Antagonist activity at human Gal4-fused ERbeta expressed in HEK293 cells assessed as inhibition of E2-induced transcriptional activation after 24 hrs by luciferase/beta-galactosidase reporter gene assay
Data set [4] in a line: physchem.
Description: Acid dissociation constant, pKa of the compound by UV spectral absorption analysis
The nature of data set [5]: physchem. Particulars: 1-octanol/water.
Description: 1-Octanol-water partition coefficient, log P of the compound by HPLC analysis
Data set [6] concerns the target T1, Estrogen receptor.
Description: Antagonist activity at human Gal4-fused ERalpha expressed in HEK293 cells assessed as inhibition of E2-induced transcriptional activation after 24 hrs by luciferase/beta-galactosidase reporter gene assay
Data set [7] addresses T2, Estrogen receptor beta.
Description: as §2
For data set [8], the target named is T2, Estrogen receptor beta. Nature of the data set: Agonist activity at human Gal4-fused ERbeta expressed in HEK293 cells assessed as transcriptional activation at 30 uM after 24 hrs by luciferase/beta-galactosidase reporter gene assay relative to estradiol. In kind it is cell-based. Background: Reporter assays use an easily measured gene product as a stand-in for the process of interest.

The target in data set [9] is T1, Estrogen receptor. The source holds these as a separate data set.
Description: as §1
For data set [10], the target named is T3, Estrogen receptor (Homo sapiens) (UniProt P03372).
T3 sequence (whole entry): T1 sequence (P03372 whole entry)
Nature of the data set: Agonist activity at human Gal4-fused ERalpha expressed in HEK293 cells assessed as transcriptional activation at 30 uM after 24 hrs by luciferase/beta-galactosidase reporter gene assay relative to estradiol. In kind it is cell-based.

In data set [11] the target is T2, Estrogen receptor beta. The data set can be described thus: Antagonist activity at human Gal4-fused ERbeta expressed in HEK293 cells assessed as inhibition of E2-induced transcriptional activation at 30 uM after 24 hrs by luciferase/beta-galactosidase reporter gene assay relative to control. Format: cell-based.

Each structure is given as a SMILES string. A value given as a limit tells only on which side of the number the result lay.

T2 sequence (Q92731 whole entry): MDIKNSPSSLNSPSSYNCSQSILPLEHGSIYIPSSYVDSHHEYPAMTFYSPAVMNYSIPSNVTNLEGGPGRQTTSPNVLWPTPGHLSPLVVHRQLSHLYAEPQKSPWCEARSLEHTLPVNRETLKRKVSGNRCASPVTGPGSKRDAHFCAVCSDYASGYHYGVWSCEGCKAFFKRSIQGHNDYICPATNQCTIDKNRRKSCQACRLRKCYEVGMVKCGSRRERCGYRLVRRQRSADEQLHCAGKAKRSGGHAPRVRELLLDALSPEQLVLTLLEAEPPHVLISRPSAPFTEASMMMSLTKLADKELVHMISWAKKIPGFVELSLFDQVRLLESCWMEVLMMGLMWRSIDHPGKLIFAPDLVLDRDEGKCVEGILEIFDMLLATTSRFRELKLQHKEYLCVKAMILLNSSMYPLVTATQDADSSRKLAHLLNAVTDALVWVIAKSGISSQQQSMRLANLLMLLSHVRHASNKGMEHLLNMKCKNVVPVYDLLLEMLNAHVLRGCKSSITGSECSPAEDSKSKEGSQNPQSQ

`CP(c1ccccc1)c1ccc(O)cc1` (stereo unspecified): the IC50 result on Estrogen receptor [1] and against Estrogen receptor beta [3] was “Not Active” each time. Besides, at Estrogen receptor [2], the EC50 result is reported as “Not Active”. Further, the pKa in the data set “physchem [4]” stood at 9.49. This molecule displayed a logP in the data set “physchem [5]” of 3.67.
`B.CP(c1ccccc1)c1ccc(O)cc1` (stereo unspecified) [listing 1 of 2 here]: the IC50 was found to be 9.8 µM at Estrogen receptor [6] and 2.5 µM against Estrogen receptor beta [7]. At Estrogen receptor [2], the EC50 result is “Not Active”. This molecule also came in with a pKa in “physchem [4]” of 8.83. Also, the logP in “physchem [5]” was found to be 3.38.
With `CP(=O)(c1ccccc1)c1ccc(O)cc1` (stereo unspecified), the IC50 entry against Estrogen receptor [1] and against Estrogen receptor beta [3] was “Not Active” throughout. The Activity at Estrogen receptor beta [8] worked out at 36%. Moreover, the EC50 at Estrogen receptor [9] was found to be 19 µM. For the same molecule, the pKa in “physchem [4]” amounted to 8.63. Moreover, the logP in “physchem [5]” turned out to be 1.88.
For `B.CP(c1ccccc1)c1ccc(O)cc1` (stereo unspecified) [listing 2 of 2 here], the Activity on Estrogen receptor beta [8] came to 16%.
Turning to `B.Oc1ccc(P(c2ccccc2)c2ccccc2)cc1`, the IC50 against Estrogen receptor [6] was 12 µM; against Estrogen receptor beta [7], 2 µM. Further, the EC50 result at Estrogen receptor [2] was “Not Active”. In “physchem [4]”, the pKa was 8.81. The molecule further had a logP in “physchem [5]” of 4.96.
For the molecule `CC(C)(c1ccccc1)c1ccc(O)cc1`, the IC50 on Estrogen receptor [6] amounted to 24 µM; on Estrogen receptor beta [7] it was 13 µM. Further, the Activity at Estrogen receptor beta [8] amounted to 38%. A half-maximal effect on Estrogen receptor [9] (EC50) was put at 4.4 µM. For the same molecule, the pKa in “physchem [4]” amounted to 10.6. This molecule also registered a logP in “physchem [5]” of 4.2.
As for `Oc1ccc(P(c2ccccc2)c2ccccc2)cc1`, the IC50 entry at Estrogen receptor [1] and against Estrogen receptor beta [3] was “Not Active” throughout. Besides, at Estrogen receptor [2], the EC50 entry was “Not Active”. Moreover, the pKa in the data set “physchem [4]” was found to be 9.48. The logP in the data set “physchem [5]” was 5.06.
With `CP(=S)(c1ccccc1)c1ccc(O)cc1` (stereo unspecified), the IC50 entry at Estrogen receptor [1] and on Estrogen receptor beta [3] was “Not Active” each time. Besides, the Activity (in [10]; at Estrogen receptor beta [8]) was 24% throughout. This molecule also returned a pKa in the data set “physchem [4]” of 8.65. In addition, the logP in the data set “physchem [5]” turned out to be 2.69.
In the case of `O=P(c1ccccc1)(c1ccccc1)c1ccc(O)cc1`, the IC50 result on Estrogen receptor [1] and against Estrogen receptor beta [3] was “Not Active” in each case. Besides, the EC50 result on Estrogen receptor [2] is “Not Active”. In “physchem [4]”, this molecule yielded a pKa of 8.51. The logP in the data set “physchem [5]” turned out to be 3.22.
As to `Oc1ccc(P(=S)(c2ccccc2)c2ccccc2)cc1`, the IC50 against Estrogen receptor [6] worked out at 20 µM; on Estrogen receptor beta [7] it was 13 µM. The 50% effective concentration (EC50) result at Estrogen receptor [2] is recorded as “Not Active”. This molecule also gave a pKa in the data set “physchem [4]” of 8.6. In “physchem [5]”, the logP is 4.08.
For the molecule `C[Si](C)(c1ccccc1)c1ccc(O)cc1`, the IC50 against Estrogen receptor [6] worked out at 13 µM; against Estrogen receptor beta [7], 5 µM. The Activity on Estrogen receptor beta [8] worked out at 20%. At Estrogen receptor [9], the EC50 is over 30 µM. Also, the pKa in “physchem [4]” is 10.2. In the data set “physchem [5]”, the logP is 4.8.
Turning to `CP(=[Se])(c1ccccc1)c1ccc(O)cc1` (stereo unspecified), the IC50 result against Estrogen receptor [1] was “Not Active”. Further, the EC50 entry at Estrogen receptor [2] is “Not Active”. Besides, the inhibition on Estrogen receptor beta [11] worked out at 30%. Further, at Estrogen receptor beta [8], the Activity came out at 24%. This molecule also gave a pKa in the data set “physchem [4]” of 8.64. The molecule further showed a log partition coefficient (logP) in “physchem [5]” of 3.27.
